Experimental data published in patent publication US20040228872A1 (priority 2003, published 2004).

How the values were obtained:
foreleg flexor muscles = conditions: mouse, in vivo
[1] = test system: orbicularis oculi muscles; conditions: guinea pig, in vivo
[2] = in vivo; cited from earlier work

Structure (SMILES): O=c1c(-c2ccc(O)cc2)coc2cc(O)cc(O)c12 [genistein, 5,7-dihydroxy-3-(4-hydroxyphenyl)-4H-1-benzopyran-4-one]
- Grip strength recovery (percent of untreated baseline grip strength) (foreleg flexor muscles): retarded
- Delay of time to 50% recovery of blinks (blink amplitude) [1]: approximately 10 days
- Recovery of blinks after surgery [1]: full recovery within a week
- Reduction of blink amplitude after surgery [1]: ≤ 10%
- Tolerability of dietary intake [2]: without obvious ill effects
